Here are results for 28 compounds from patent publication US20230086702A1, “SUBSTITUTED 2-AMINO-PYRAZOLYL-[1,2,4]TRIAZOLO[1,5A]PYRIDINE DERIVATIVES AND USE THEREOF” (The Johns Hopkins University, priority 2019, published 2023).

Molecules are shown by their SMILES.

The term IC50 denotes the concentration at which inhibition is half-maximal. The low end stands for greater potency, the high end for weaker potency.

In experiment [1] the target is T1, DLK (Homo sapiens, UniProt Q12852).
T1 construct: 10 nM DLK, catalytic domain, Carna Biosiences; purchased Carna Biosciences ('Carna Biosiences' [sic])
T1 sequence (Q12852 125-366 limits assumed): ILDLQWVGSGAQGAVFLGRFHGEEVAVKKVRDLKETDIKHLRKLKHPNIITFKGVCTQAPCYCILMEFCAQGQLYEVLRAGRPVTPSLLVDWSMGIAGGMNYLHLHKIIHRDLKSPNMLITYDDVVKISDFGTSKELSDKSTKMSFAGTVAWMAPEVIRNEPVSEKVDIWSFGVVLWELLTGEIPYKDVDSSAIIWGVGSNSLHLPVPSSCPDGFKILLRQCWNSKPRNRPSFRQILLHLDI
Put plainly: DLK biochemical assay (TR-FRET, MKK7 phosphorylation). The conditions noted are these: DLK catalytic domain, MKK7 substrate, 60 μM ATP. The procedure, abridged:
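Human DLK activity measured as phosphorylation of His-tagged MKK7 at T275/S277, detected by TR-FRET between Eu-anti-phospho-MKK7 donor (excitation 340 nm) and XL665-anti-His acceptor (665 nm). Signal taken as the XL665/Eu ratio. Detection buffer: 25 mM Tris/HCl pH 7.5, 100 mM EDTA, 100 mM NaCl, 200 mM KF, 0.01% Tween 20.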

In experiment [2] the target is T2, LZK (Homo sapiens, UniProt O43283).
T2 construct: 10 nM LZK, catalytic domain, Carna Biosiences in assay buffer; purchased Carna Biosciences ('Carna Biosiences' [sic])
T2 sequence (O43283 168-409 limits assumed): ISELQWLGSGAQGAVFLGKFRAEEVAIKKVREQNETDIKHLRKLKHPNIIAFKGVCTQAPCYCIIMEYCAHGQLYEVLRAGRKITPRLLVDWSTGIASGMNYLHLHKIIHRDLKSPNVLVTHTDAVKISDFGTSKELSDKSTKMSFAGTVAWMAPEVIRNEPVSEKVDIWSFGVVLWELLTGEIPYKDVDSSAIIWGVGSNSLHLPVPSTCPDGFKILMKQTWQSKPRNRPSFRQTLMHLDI
Put plainly: LZK biochemical assay (TR-FRET, MKK7 phosphorylation). The settings on record: LZK catalytic domain, MKK7 substrate, 15 μM ATP. For orientation: TR-FRET usually uses a lanthanide donor and a delayed reading to cut background.

`CC[C@H](C)NC(=O)c1cc(-c2cnn(C(c3ccc(C(F)F)nc3)C(C)C)c2)cc2nc(N)nn12` (single isomer, unassigned) [Example I-96]: the IC50 in experiment [1] came out at 14 nM; in experiment [2], 17 nM.

As to `CCC(c1ccc(C(F)(F)F)nc1)n1cc(-c2cc(C(=O)N[C@H]3CCOC3)n3nc(N)nc3c2)cn1` (single isomer, unassigned) [Example I-178], the IC50 in experiment [1] was 17 nM; in experiment [2], 64 nM.

`CCC(c1ccc(Cl)s1)n1cc(-c2cc(C(=O)N[C@@H](C)CC)c3nc(N)nn3c2)cn1` (mixture of isomers) [Example I-129, 2-Amino-N-[(2S)-butan-2-yl]-6-{1-[1-(5-chloro-2-thienyl)propyl]-1H-pyrazol-4-yl}[1,2,4]triazolo[1,5-a]pyridine-8-carboxamide]: the IC50 in experiment [1] turned out to be 3.4 nM; in experiment [2], 39 nM.

With `CC[C@H](C)NC(=O)c1cc(-c2cnn(C(c3ccc(C(F)F)nc3)C3CC3)c2)cc2nc(N)nn12` (single isomer, unassigned) [Example I-99], the IC50 in experiment [1] was 31 nM; in experiment [2], 14 nM.

As for `CC[C@H](C)NC(=O)c1cc(-c2cnn([C@@H](CC)c3cncc(Cl)c3)c2)cn2nc(N)nc12` (single isomer, unassigned) [Example I-60], the half-maximal inhibitory concentration (IC50) in experiment [1] amounted to 3.7 nM; in experiment [2] it was 8.9 nM.

Take `CC(CF)NC(=O)c1cc(-c2cnn(CC3CC3)c2)cn2nc(N)nc12` (racemic) [Example I-137, 2-Amino-6-[1-(cyclopropylmethyl)-1H-pyrazol-4-yl]-N-[1-fluoropropan-2-yl][1,2,4]triazolo[1,5-a]pyridine-8-carboxamide]: the results for the IC50 in experiment [1] and in experiment [2] were 140 nM and 150 nM, respectively.

`CCC(c1cncc(Cl)c1)n1cc(-c2cc(C(=O)N[C@@H](C)CC)c3nc(N)nn3c2)cn1` (mixture of isomers) [Example I-58, 2-Amino-N-[(2S)-butan-2-yl]-6-{1-[1-(5-chloropyridin-3-yl)propyl]-1H-pyrazol-4-yl}[1,2,4]triazolo[1,5-a]pyridine-8-carboxamide]: the IC50 is 1.6 nM in experiment [1] and 16 nM in experiment [2].

As for `CC[C@H](C)NC(=O)c1cc(-c2cnn(C3CCN(C(C)=O)CC3)c2)cn2nc(N)nc12` (single isomer, unassigned) [Example I-11], the IC50 in experiment [1] stood at 82 nM; in experiment [2], 14 nM.

Regarding `CC[C@H](C)NC(=O)c1cc(-c2cnn(C(c3ccc(C(F)F)nc3)C(C)C)c2)cn2nc(N)nc12` (single isomer, unassigned) [Example I-68], the IC50 in experiment [1] is 14 nM; in experiment [2] it was 43 nM.

Consider `CCC(c1ccc(OC(F)(F)F)nc1)n1cc(-c2cc(C(=O)N[C@@H](C)CO)c3nc(N)nn3c2)cn1` (single isomer, unassigned) [Example I-159], for which the IC50 in experiment [1] stood at 6.7 nM; in experiment [2], 30 nM.

Take `CC[C@H](C)NC(=O)c1cc(-c2cnn(C3CN(C)C3)c2)cn2nc(N)nc12` [Example I-4]: the IC50 in experiment [1] was 84 nM; in experiment [2] it was 26 nM.

As for `CC[C@H](C)NC(=O)c1cc(-c2cnn(C(c3ccccc3)C3CC(F)(F)C3)c2)cn2nc(N)nc12` (single isomer, unassigned) [Example I-32], the IC50 stood at 56 nM in experiment [1] and 180 nM in experiment [2].

With `CC[C@H](C)NC(=O)c1cc(-c2cnn(C(c3ccc(C(F)(F)F)nc3)C(C)C)c2)cc2nc(N)nn12` (single isomer, unassigned) [Example I-105], the IC50 in experiment [1] stood at 13 nM; in experiment [2] it was 14 nM.

In the case of `CC[C@H](C)NC(=O)c1cc(-c2cnn(C(c3ccc(C(F)(F)F)nc3)C3CCOCC3)c2)cn2nc(N)nc12` (single isomer, unassigned) [Example I-78], the IC50 in experiment [1] turned out to be 0.7 nM; in experiment [2] it was 1.7 nM.

With `C[C@@H](CF)NC(=O)c1cc(-c2cnn(C3CCOc4ccccc43)c2)cn2nc(N)nc12` (mixture of isomers) [Example I-143, 2-Amino-6-{1-[3,4-dihydro-2H-1-benzopyran-4-yl]-1H-pyrazol-4-yl}-N-[1-fluoropropan-2-yl][1,2,4]triazolo[1,5-a]pyridine-8-carboxamide], the results for the IC50 in experiment [1] and in experiment [2] were 33 nM and 15 nM, respectively.

As for `CC(CF)NC(=O)c1cc(-c2cnn(C(c3ccccc3)C(C)C)c2)cn2nc(N)nc12` (single isomer, unassigned) [Example I-142, 2-Amino-N-[1-fluoropropan-2-yl]-6-{1-[2-methyl-1-phenylpropyl]-1H-pyrazol-4-yl}[1,2,4]triazolo[1,5-a]pyridine-8-carboxamide], the figures for the IC50 in experiment [1] and in experiment [2] were 4.2 nM and 240 nM, respectively.

In the case of `CC[C@H](C)NC(=O)c1cc(-c2cnn(C(c3ccccc3)C(C)(C)C)c2)cn2nc(N)nc12` (mixture of isomers) [Example I-34, 2-Amino-N-[(2S)-butan-2-yl]-6-{1-[2,2-dimethyl-1-phenylpropyl]-1H-pyrazol-4-yl}[1,2,4]triazolo[1,5-a]pyridine-8-carboxamide], the IC50 in experiment [1] is 9.5 nM; in experiment [2] it was 520 nM.

Consider `CCC(c1ccc(C(F)(F)F)nc1)n1cc(-c2cc(C(=O)N[C@@H](C)CC)c3nc(N)nn3c2)cn1` (mixture of isomers) [Example I-70, 2-Amino-N-[(2S)-butan-2-yl]-6-(1-{1-[6-(trifluoromethyl)pyridin-3-yl]propyl}-1H-pyrazol-4-yl)[1,2,4]triazolo[1,5-a]pyridine-8-carboxamide], for which the IC50 came to 2.1 nM in experiment [1] and 6.5 nM in experiment [2].

As for `CC[C@H](C)NC(=O)c1cc(-c2cnn(C3CCCc4cnccc43)c2)cc2nc(N)nn12` (mixture of isomers) [Example I-20, 2-Amino-N-[(2S)-butan-2-yl]-7-[1-(5,6,7,8-tetrahydroisoquinolin-5-yl)-1H-pyrazol-4-yl][1,2,4]triazolo[1,5-a]pyridine-5-carboxamide], the IC50 in experiment [1] was determined as 11 nM; in experiment [2], 4.4 nM.

`CC(CF)NC(=O)c1cc(-c2cnn(Cc3cccc4cn[nH]c34)c2)cn2nc(N)nc12` (racemic) [Example I-138, 2-Amino-N-(1-fluoropropan-2-yl)-6-{1-[(1H-indazol-7-yl)methyl]-1H-pyrazol-4-yl} [1,2,4]triazolo[1,5-a]pyridine-8-carboxamide]: the values for the IC50 in experiment [1] and in experiment [2] were 3 nM and 190 nM, respectively.

For `CC[C@H](C)NC(=O)c1cc(-c2cnn(C(c3ccc(OCC(F)(F)F)nc3)C(C)C)c2)cc2nc(N)nn12` (mixture of isomers) [Example I-116, 2-Amino-N-[(2S)-butan-2-yl]-7-(1-{2-methyl-1-[6-(2,2,2-trifluoroethoxy)pyridin-3-yl]propyl}-1H-pyrazol-4-yl)[1,2,4]triazolo[1,5-a]pyridine-5-carboxamide], the IC50 came out at 8.2 nM in experiment [1] and 68 nM in experiment [2].

Regarding `CCC(c1ccc(N2CCOCC2)cc1)n1cc(-c2cc(C(=O)N[C@@H](C)CC)c3nc(N)nn3c2)cn1` (single isomer, unassigned) [Example I-48], the IC50 in experiment [1] amounted to 25 nM; in experiment [2], 120 nM.

As for `CCC(c1ccc(OCC(F)(F)F)nc1)n1cc(-c2cc(C(=O)N[C@H]3CCOC3)n3nc(N)nc3c2)cn1` (single isomer, unassigned) [Example I-188], the values for the 50% inhibitory concentration (IC50) in experiment [1] and in experiment [2] were 16 nM and 190 nM, respectively.

On to `CC[C@H](C)NC(=O)c1cc(-c2cnn(C(c3ccccc3)C3CCOCC3)c2)cc2nc(N)nn12` (mixture of isomers) [Example I-51, 2-Amino-N-[(2S)-butan-2-yl]-7-{1-[phenyl(tetrahydro-2H-pyran-4-yl)methyl]-1H-pyrazol-4-yl}[1,2,4]triazolo[1,5-a]pyridine-5-carboxamide], for which the IC50 turned out to be 1.8 nM in experiment [1] and 8.7 nM in experiment [2].

As for `CCC(c1ccc(C(F)F)nc1)n1cc(-c2cc(C(=O)N[C@@H](C)CC)n3nc(N)nc3c2)cn1` (single isomer, unassigned) [Example I-93], the figures for the IC50 in experiment [1] and in experiment [2] were 6.5 nM and 6.3 nM, respectively.

As to `CC[C@H](C)NC(=O)c1cc(-c2cnn(C(COC)c3ccccc3)c2)cn2nc(N)nc12` (single isomer, unassigned) [Example I-42], the figures for the IC50 in experiment [1] and in experiment [2] were 9.8 nM and 37 nM, respectively.

For `CC[C@H](C)NC(=O)c1cc(-c2cnn(C(c3ccc(C(F)F)nc3)C(C)C)c2)cc2nc(N)nn12` (mixture of isomers) [Example I-95, 2-Amino-N-[(2S)-butan-2-yl]-7-(1-{1-[6-(difluoromethyl)pyridin-3-yl]-2-methylpropyl}-1H-pyrazol-4-yl)[1,2,4]triazolo[1,5-a]pyridine-5-carboxamide], the IC50 in experiment [1] came out at 1.5 nM; in experiment [2] it was 4.7 nM.

Consider `CC(C)C(c1ccc(C(F)(F)F)nc1)n1cc(-c2cc(C(=O)N[C@H]3CCOC3)n3nc(N)nc3c2)cn1` (single isomer, unassigned) [Example I-181], for which the values for the IC50 in experiment [1] and in experiment [2] were 2.1 nM and 14 nM, respectively.
